{
  "source": "patent US12384775B2",
  "about": "“Pyrimid-2-yl-pyrazole compounds as IRAK inhibitors” (Rigel Pharmaceuticals, Inc., priority 2022, dated 2025)",
  "system": "TLR4-induced IL-23 production in human primary dendritic cells (DC)",
  "experiment": "IL23-p19 ELISA, dendritic cells (DC), LPS",
  "type": "cell-based",
  "settings": "Dendritic cell; dendritic cells from human PBMC, IFNγ primed, LPS 1 μg/ml, 18 h; read-out: IL23-p19 ELISA, Dendritic, LPS, 10 pt EC50",
  "experimental": "Human PBMC cells (400 million) obtained from the vendor were transferred into a T-175 flask containing 15 ml RPMI media (10% FBS) and incubate for 2 hours at 37° C. After 2 hours, the media including floating cells was aspirated out carefully and 12 ml of fresh RPMI media (10% FBS) containing GMCSF (100 ng/ml) and IL4 (20 ng/ml) was added, and the flask was kept in a 37° C. incubator for 7 days.\nAfter 3 days, fresh GMCSF (100 ng/ml) and IL4 (20 ng/ml) were added to the flask and the incubation continued. After 7 days, the fully differentiated cells were harvested by spinning down (1200 rpm/5 min) and aspirating the media. […]\n155 μl of the supernatant was harvested from each well carefully (without the tip touching the bottom of the well) and to the remaining 50 μl/well of the cell culture plate was added 50 μl of Cell Titer Glo reagent. The mixture was incubated for 1-2 minutes on a shaker and the plate was read for luminescence intensity to determine the compound cytotoxicity. […]\nAfter 45 minutes, the plates were washed with TBST 4× and 100 ul/well Super Signal ELISA Pico Chemiluminescent Substrate from Pierce (3.5 ml A+3.5 ml B+3.5 ml MQ water) was added. The plates were shaken for 1-2 minutes then read on a plate reader. […]",
  "data": [
    {"molecule": "CCO[C@H]1CC[C@H](n2cc(NC(=O)c3csc(-c4cn[nH]c4)n3)c(-c3ncccn3)n2)CC1", "note": "[Compound I-1, N-(1-((1r,4r)-4-ethoxycyclohexyl)-3-(pyrimidin-2-yl)-1H-pyrazol-4-yl)-2-(1H-pyrazol-4-yl)thiazole-4-carboxamide]", "values": [
      {"measurement": "EC50", "value": 180, "unit": "nM"}
    ]}
  ]
}
